Key:
GluT-1 = GluT-1 protein levels in SCC-25 cells (Western blot); format: cell-based, Human; details: 10 and 25 μM, 16 hours, FIG. 1B
Protocol: Human SSC-25 (squamous cell carcinoma) or rat H9c2 (ventricular cardiomyocyte) cells were grown to confluence in 100 mm culture dishes at 37° C., 10% CO2 in DMEM with 10% fetal calf serum. Cells were then washed twice with PBS and incubated with vehicle control, compound D (10 and 25 μM), or compound C (5, 10, and 20 μM) for 16 hours. Plates were placed on ice, culture supernatant was removed, and lysis buffer-1 (LB-1: 10 mM Tris pH 7.4, 1 mM EDTA, 150 mM sodium chloride, 0.5% IGEPAL) was added. Cell lysates were harvested by scraping, incubated for 15 minutes on ice, and then centrifuged at 3000×g for 5 minutes at 4° C. The supernatant, which represents the cytosolic fraction, was collected and cytosolic proteins were separated under reducing conditions using SDS-polyacrylamide gel electrophoresis (SDS-PAGE) with equal amounts of protein loaded per lane.
SDS-PAGE was conducted at 150 V for 2 hours, after which the proteins were transferred to a PVDF membrane at 400 mA for 1.5 hours at 4° C. The membrane was incubated in blocking buffer for 2 hours or overnight and washed once with T-TBS prior to addition of anti-GluT-1 antibody (Alpha Diagnostics) diluted to working concentration in blocking buffer. […]

HIF-1α = HIF-1α stabilization in cells, nuclear fraction Western blot; format: cell-based, Human; details: various cell types, overnight incubation, 20% O2; FIG. 12A
Protocol: Stabilization of HIFα using compounds and methods of the present invention was examined as follows. Human cells derived from adenovirus-transformed fetal kidney epithelium (293A), cervical epithelial adenocarcinoma (HeLa), hepatocellular carcinoma (Hep3B), squamous carcinoma (SSC-25), and lung fibroblast (HLF) (see, e.g., American Type Culture Collection, Manassas Va.; and Qbiogene, Carlsbad Calif.) were separately seeded into 100 mm culture dishes and grown at 37° C., 20% O2, 10% CO2 in media as follows: HeLa cells in Dulbecco's Modification of Eagle's Medium (DMEM), 2% fetal bovine serum (FBS); HLF cells in DMEM, 10%FBS; 293A cells in DMEM, 5%FBS; and Hep3B cells in Minimal Essential Medium (MEM), Earle's BSS (Mediatech Inc., Herndon Va.), 2 mM L-glutamine, 0.1 mM non-essential amino acids, 1 mM sodium pyruvate, 10% FBS. When cell layers reached confluence, the media was replaced with OPTI-MEM media (Invitrogen Life Technologies, Carlsbad Calif.) and cell layers were incubated for approximately 24 hours in 20% O2, 10% CO2 at 37° C. Compound of the invention (one of compounds B, F, G, and H) or DMSO (0.5 to 1%) was then added to existing medium, and incubation was continued overnight.
Following incubation, the media was removed, centrifuged, and stored for analysis. […]

[1] = tested on: inducible nitric oxide synthase (iNOS); test: In vivo iNOS mRNA expression (quantitative PCR); parameters: species or system Swiss Webster male mice; details: mice, oral gavage; within 8 hours following treatment, then returned to control levels; normalized to 18S rRNA; FIG. 10A
Protocol: To determine gene induction patterns over time, twenty four Swiss Webster male mice (30-32 g) were obtained from Simonsen, Inc. and treated by oral gavage with a 4 ml/kg volume of either 0.5% carboxymethyl cellulose (CMC; Sigma-Aldrich, St. Louis Mo.) (0 mg/kg/day) or […] compound B (25 mg/ml in 0.5% CMC) (100 mg/kg). At 4, 8, 16, 24, 48, or 72 hours after the final dose, animals were anesthetized with isoflurane. The mice were then sacrificed and tissue samples of kidney, liver, brain, lung, and heart were isolated and stored in RNALATER solution (Ambion) at −80° C.
To investigate the dose response of compounds of the present invention, twelve Swiss Webster male mice (30-32 g) (obtained from Simonsen, Inc., Gilroy Calif.) were treated by oral gavage once per day for 4 days with a 4 ml/kg volume of either 0.5% carboxymethyl cellulose (CMC; Sigma-Aldrich, St. Louis Mo.), compound D (25 mg/ml in 0.5% CMC) (100 mg/kg/day), or compound B (7.5 and 25 mg/ml in 0.5% CMC) (30 and 100 mg/kg/day, respectively). Four hours after the final dose, animals were anesthetized, sacrificed, and approximately 150 mg of liver and each kidney were isolated and stored in RNALATER solution (Ambion) at −20° C.
Hypertension is a risk factor for diabetes and disorders and diseases associated with diabetes. The effects of compounds of the present invention on regulation of blood pressure were examined as follows. Animals were treated with compound B or compound D and RNA samples were prepared as described above in Example 4. […] Analysis of the relative level of gene expression was performed by quantitative PCR using a FASTSTART DNA MASTER SYBR GREEN I kit (Roche) and gene-specific primers, using a LIGHTCYCLER system (Roche), according to manufacturer's instructions. […]
The relative level of 18S ribosomal RNA gene expression was measured as a control. Quantitative PCR was performed using a QUANTITECT SYBR GREEN PCR kit (Qiagen) and gene-specific primers, using a LIGHTCYCLER system (Roche), according to manufacturer's instructions. […]

SMILES: O=C(O)c1c[nH]c2c(ccc3cccnc32)c1=O [compound D, 4-Oxo-1,4-dihydro-[1,10]phenanthroline-3-carboxylic acid]
- protein levels of GluT-1 (GluT-1): increased
- HIFα stabilization (Western blot) (HIF-1α): stabilized HIFα in a dose-dependent manner
- expression of the gene encoding iNOS [1]: increased
